Measurements as given in ChEMBL document CHEMBL3046360, “Design, synthesis and preliminary antiviral screening of new N-phenylpyrazole and dihydroisoxazole derivatives” (Med Chem Res, 2010).
Calls of active or inactive are those of the source. No cut-off for these calls is given here.

What was measured:
[1] = test system: Vesicular stomatitis virus; assay: Antiviral activity against Vesicular stomatitis virus infected HEL cells assessed as inhibition of virus-induced cytopathic effect after 3 days by MTT assay; assay type: functional, organism-based; conditions: 72 h
Human alphaherpesvirus 2 = assay: Antiviral activity against Human herpesvirus 2 strain G infected HEL cells assessed as inhibition of virus-induced cytopathic effect after 3 days by MTT assay; assay type: functional, organism-based; conditions: Human alphaherpesvirus 2, strain G, 72 h
Human alphaherpesvirus 1 [2] = assay: Antiviral activity against Human herpesvirus 1 strain KOS infected in HEL cells assessed as inhibition of virus-induced cytopathic effect after 3 days by MTT assay; assay type: functional, organism-based; conditions: Human alphaherpesvirus 1, KOS, 72 h
[3] = Cytotoxicity against Homo sapiens (human) HEL cells after 3 days by microscopic analysis; assay type: cell-based
Human alphaherpesvirus 1 [4] = assay: Antiviral activity against acyclovir-resistant TK-deficient Hepres simplex virus 1 KOS infected in HEL cells assessed as inhibition of virus-induced cytopathic effect after 3 days by MTT assay; assay type: functional, organism-based; conditions: Human alphaherpesvirus 1, KOS, 72 h
[5] = Cytotoxicity against Chlorocebus aethiops (African green monkey) Vero cells after 3 days by microscopic analysis; assay type: cell-based; conditions: chlorocebus sabaeus
Punta Toro virus = assay: Antiviral activity against Punta Toro virus infected Vero cells assessed as inhibition of virus-induced cytopathic effect after 3 days by MTT assay; assay type: functional, organism-based; conditions: 72 h
Coxsackievirus B4 [6] = assay: Antiviral activity against Human coxsackievirus B4 infected Vero cells assessed as inhibition of virus-induced cytopathic effect after 3 days by MTT assay; assay type: functional, organism-based; conditions: Enterovirus B, 72 h
Sindbis virus = assay: Antiviral activity against Sindbis virus infected Vero cells assessed as inhibition of virus-induced cytopathic effect after 3 days by MTT assay; assay type: functional, organism-based; conditions: 72 h
Reovirus sp. = assay: Antiviral activity against Mammalian orthoreovirus 1 virus infected Vero cells assessed as inhibition of virus-induced cytopathic effect after 3 days by MTT assay; assay type: functional, organism-based; conditions: 72 h
Human respirovirus 3 = assay: Antiviral activity against Human parainfluenza virus 3 infected Vero cells assessed as inhibition of virus-induced cytopathic effect after 3 days by MTT assay; assay type: functional, organism-based; conditions: Human respirovirus 3, Vero, 72 h
[7] = test system: Respiratory syncytial virus; assay: Antiviral activity against Respiratory syncytial virus infected HeLa cells assessed as inhibition of virus-induced cytopathic effect after 3 days by MTT assay; assay type: functional, organism-based; conditions: human respiratory syncytial virus, 72 h
Coxsackievirus B4 [8] = assay: Antiviral activity against Human coxsackievirus B4 infected HeLa cells assessed as inhibition of virus-induced cytopathic effect after 3 days by MTT assay; assay type: functional, organism-based; conditions: Enterovirus B, 72 h
[9] = test system: Vesicular stomatitis virus; assay: Antiviral activity against Vesicular stomatitis virus infected HeLa cells assessed as inhibition of virus-induced cytopathic effect after 3 days by MTT assay; assay type: functional, organism-based; conditions: 72 h
[10] = Cytotoxicity against Homo sapiens (human) HeLa cells after 3 days by microscopic analysis; assay type: cell-based
Hepatovirus A [11] = assay: Antiviral activity against Hepatitis A virus infected Vero cells assessed as reduction in viral plaque at 20 ug/ml after overnight incubation by crystal violet staining; assay type: functional; parameters: scale not given: the % may be the effect or the level left
Hepatovirus A [12] = assay: Antiviral activity against Hepatitis A virus infected Vero cells assessed as reduction in viral plaque at 10 ug/ml after overnight incubation by crystal violet staining; assay type: functional; parameters: scale not given: the % may be the effect or the level left
Human alphaherpesvirus 1 [13] = assay: Antiviral activity against Human herpesvirus 1 infected Vero cells assessed as reduction in viral plaque at 20 ug/ml after overnight incubation by crystal violet staining; assay type: functional; parameters: scale not given: the % may be the effect or the level left
Human alphaherpesvirus 1 [14] = assay: Antiviral activity against Human herpesvirus 1 infected Vero cells assessed as reduction in viral plaque at 10 ug/ml after overnight incubation by crystal violet staining; assay type: functional; parameters: scale not given: the % may be the effect or the level left
[15] = test system: Human immunodeficiency virus 2; assay: Antiviral activity against Human immunodeficiency virus type 2 (ISOLATE ROD) infected MT4 cells assessed as inhibition of virus-induced cytopathic effect up to 20 ug/ml after 5 days by MTT assay; assay type: functional, organism-based
[16] = test system: Human immunodeficiency virus 1; assay: Antiviral activity against Human immunodeficiency virus 1 IIIB infected MT4 cells assessed as inhibition of virus-induced cytopathic effect up to 20 ug/ml after 5 days by MTT assay; assay type: functional, organism-based
[17] = Selectivity ratio of MCC for human HEL cells to EC50 for acyclovir-resistant TK-deficient Hepres simplex virus 1 KOS; assay type: ADME, cell-based
[18] = Selectivity ratio of MCC for human HEL cells to EC50 for Vesicular stomatitis virus; assay type: ADME, cell-based
[19] = Selectivity ratio of MCC for human HEL cells to EC50 for Vaccinia virus; assay type: ADME, cell-based
[20] = Selectivity ratio of MCC for human HEL cells to EC50 for Herpes simplex virus 2 G; assay type: ADME, cell-based
[21] = Selectivity ratio of MCC for human HEL cells to EC50 for Herpes simplex virus 1 KOS; assay type: ADME, cell-based
Vaccinia virus = assay: Antiviral activity against Vaccinia virus infected in HEL cells assessed as inhibition of virus-induced cytopathic effect after 3 days by MTT assay; assay type: functional, organism-based; conditions: Orthopoxvirus vaccinia, 72 h

Row | SMILES | EC50 [1] | EC50 (Human alphaherpesvirus 2) | EC50 (Human alphaherpesvirus 1 [2]) | MCC at 72 h [3] | EC50 (Human alphaherpesvirus 1 [4]) | MCC at 72 h [5] | EC50 (Punta Toro virus) | EC50 (Coxsackievirus B4 [6]) | EC50 (Sindbis virus) | EC50 (Reovirus sp.) | EC50 (Human respirovirus 3) | EC50 [7] | EC50 (Coxsackievirus B4 [8]) | EC50 [9] | MCC at 72 h [10] | Activity (Hepatovirus A [11]) [%] | Activity (Hepatovirus A [12]) [%] | Activity (Human alphaherpesvirus 1 [13]) [%] | Activity (Human alphaherpesvirus 1 [14]) [%] | Activity [15] | also measured
1 | Nc1ccn(C[C@@H](CO)OCP(=O)(O)O)c(=O)n1 [CIDOFOVIR] | > 250 µM | 5 µM | 3 µM | > 250 µM | – | – | – | – | – | – | – | – | – | – | – | – | – | – | – | – | –
2 | O=c1[nH]c(=O)n([C@H]2C[C@H](O)[C@@H](CO)O2)cc1/C=C/Br [BRIVUDINE] | > 250 µM | 126 µM | – | > 250 µM | > 250 µM | – | – | – | – | – | – | – | – | – | – | – | – | – | – | – | –
3 | Nc1ncnc2c1ncn2C[C@H](O)CO [(S)-DHPA] | – | – | – | – | – | > 250 µM | > 250 µM | > 250 µM | > 250 µM | > 250 µM | > 250 µM | > 250 µM | > 250 µM | > 250 µM | > 250 µM | – | – | – | – | – | –
4 | Clc1ccc(C2=NN(c3ccccc3)C(c3ccc(OCc4ccccc4)cc3)C2)cc1 (centres undefined) | > 20 µg/mL | > 20 µg/mL | > 20 µg/mL | 100 µg/mL | > 20 µg/mL | 100 µg/mL | > 20 µg/mL | > 20 µg/mL | > 20 µg/mL | > 20 µg/mL | > 20 µg/mL | > 20 µg/mL | > 20 µg/mL | > 20 µg/mL | ≥ 20 µg/mL | 21 | 0 | 43 | 19 | inactive | Activity [16]: inactive; selectivity ratio [17]: > 5; selectivity ratio [18]: > 5; selectivity ratio [19]: > 5; selectivity ratio [20]: > 5; selectivity ratio [21]: > 5; EC50 (Vaccinia virus): > 20 µg/mL
5 | Cc1ccc(C2=NN(c3ccccc3)C(c3ccc(OCc4ccccc4)cc3)C2)cc1 (centres undefined) | > 20 µg/mL | > 20 µg/mL | > 20 µg/mL | 100 µg/mL | > 20 µg/mL | 100 µg/mL | > 20 µg/mL | > 20 µg/mL | > 20 µg/mL | > 20 µg/mL | > 20 µg/mL | > 20 µg/mL | > 20 µg/mL | > 20 µg/mL | 100 µg/mL | 39 | 14 | 58 | 31 | inactive | Activity [16]: inactive; selectivity ratio [17]: > 5; selectivity ratio [18]: > 5; selectivity ratio [19]: > 5; selectivity ratio [20]: > 5; selectivity ratio [21]: > 5; EC50 (Vaccinia virus): > 20 µg/mL
6 | Brc1ccc(C2=NN(c3ccccc3)C(c3ccc(OCc4ccccc4)cc3)C2)cc1 (centres undefined) | > 20 µg/mL | > 20 µg/mL | > 20 µg/mL | 100 µg/mL | > 20 µg/mL | ≥ 20 µg/mL | > 20 µg/mL | > 20 µg/mL | > 20 µg/mL | > 20 µg/mL | > 20 µg/mL | > 20 µg/mL | > 20 µg/mL | > 20 µg/mL | 100 µg/mL | 16 | 2 | 50 | 13.3 | inactive | Activity [16]: inactive; selectivity ratio [17]: > 5; selectivity ratio [18]: > 5; selectivity ratio [19]: > 5; selectivity ratio [20]: > 5; selectivity ratio [21]: > 5; EC50 (Vaccinia virus): > 20 µg/mL
